Values quoted from earlier work in patent publication US20240170108A1, “METHOD AND SYSTEM FOR GENE EXPRESSION PREDICTION-BASED SCREENING OF DRUG-LIKE MOLECULES” (Tata Consultancy Services Limited, priority 2022, published 2024).

Tested on: VCAP cell line
Conditions: 10 μM concentration dose, 6 hrs of exposure

Compound: O=c1cc(-c2ccc(O)cc2)oc2cc(O[C@@H]3O[C@H](CO)[C@@H](O)[C@H](O)[C@H]3O)cc(O)c12 [Cosmosiin]
- Characteristic Direction, APP (Gene ID 351) (gene APP): −0.0047
- Characteristic Direction, ARHGEF12 (Gene ID 23365) (gene ARHGEF12): −0.0376
- Characteristic Direction, ASAH1 (Gene ID 427) (gene ASAH1): −0.0172
- Characteristic Direction, ATF1 (Gene ID 466) (gene ATF1): −0.0167
- Characteristic Direction, BRCA1 (Gene ID 672) (gene BRCA1): −0.0305
- Characteristic Direction, CSNK1A1 (Gene ID 1452) (gene CSNK1A1): −0.0011
- Characteristic Direction, EED (Gene ID 8726) (gene EED): −0.0170
- Characteristic Direction, EGF (Gene ID 1950) (gene EGF): 0.0114
- Characteristic Direction, ETV1 (Gene ID 2115) (gene ETV1): −0.0108
- Characteristic Direction, FOXO3 (Gene ID 2309) (gene FOXO3): −0.0187
- Characteristic Direction, HLA-DMA (Gene ID 3108) (gene HLA-DMA): −0.0178
- Characteristic Direction, IL1B (Gene ID 3553) (gene IL1B): 0.0082
- Characteristic Direction, NFATC4 (Gene ID 4776) (gene NFATC4): −0.0087
- Characteristic Direction, NOS3 (Gene ID 4846) (gene NOS3): 0.0363
- Characteristic Direction, PSMD4 (Gene ID 5710) (gene PSMD4): −0.0161
- Characteristic Direction, PSME1 (Gene ID 5720) (gene PSME1): −0.0142
- Characteristic Direction, RALA (Gene ID 5898) (gene RALA): 0.0206
- Characteristic Direction, RHEB (Gene ID 6009) (gene RHEB): 0.0037
- Characteristic Direction, RHOA (Gene ID 387) (gene RHOA): −0.0166
- Characteristic Direction, SERPINE1 (Gene ID 5054) (gene SERPINE1): −0.0407
- Characteristic Direction, SOX2 (Gene ID 6657) (gene SOX2): 0.0276
- Characteristic Direction, TBP (Gene ID 6908) (gene TBP): −0.0084
- Characteristic Direction, TERT (Gene ID 7015) (gene TERT): 0.0054
